The text below walks through data of PubChem BioAssay (NCI).

Several values for one entry are separate records, joined by “and”; a condition that tells them apart may be missing. Equal entries are not always repeated.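 Assay format: 96-well plates, 48-hour exposure. At the GI50, growth is halved. TGI denotes the concentration required for complete inhibition of growth.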

Test systems include HL-60(TB) leukemia; COLO 205 colon; DU-145 prostate; MOLT-4 leukemia; DMS 273 small cell lung; DLD-1 colon; SK-MEL-28 melanoma; OVCAR-5 ovarian; NCI-H226 lung; M14 melanoma.
Experiment in all cases: NCI anticancer screen, dose series, 48 h

In the case of `CC1=CCCC2C1(C)CCC(C)C2(C)Cc1cc(O)ccc1O` (stereo not given), the figures for the GI50 in the assay on HL-60(TB) leukemia and in the assay on NCI-H226 lung were 2.67 µM and 5.5 µM, respectively. Moreover, the TGI was 15.2 µM and 4.61 µM in the assay with HL-60(TB) leukemia; 34.9 µM and 32.1 µM in the assay on COLO 205 colon; 30.4 µM in the assay with DU-145 prostate; 21 µM and 8.36 µM in the assay on MOLT-4 leukemia; 20.2 µM in the assay with DMS 273 small cell lung; 22.2 µM in the assay with DLD-1 colon. Besides, the TGI in the assay with SK-MEL-28 melanoma was 29.9 µM and 31.1 µM; in the assay with OVCAR-5 ovarian, 28.7 µM and 38.9 µM; with NCI-H226 lung, 27.2 µM and 15.8 µM; in the assay with M14 melanoma it was 29.5 µM.

Take `O=C1NC2C(=CC(O)C(O)C2O)c2cc3c(cc21)OCO3` (stereo not given): the TGI in the assay on HL-60(TB) leukemia is 0.282 µM and 0.213 µM and 0.594 µM; in the assay on COLO 205 colon, 0.595 µM and 0.249 µM and 0.579 µM; in the assay on DU-145 prostate, 1.83 µM; in the assay on MOLT-4 leukemia, 0.511 µM and 1.24 µM; in the assay on DMS 273 small cell lung it was 1.99 µM and 2.07 µM; in the assay on DLD-1 colon it was 2.11 µM. The TGI in the assay on SK-MEL-28 melanoma was 2.06 µM and 2.88 µM; in the assay with OVCAR-5 ovarian it was 4.14 µM and 11.4 µM; with NCI-H226 lung, 4.46 µM and 2.34 µM; in the assay on M14 melanoma, 1.41 µM. In addition, the GI50 was 0.074 µM with COLO 205 colon; 0.305 µM and 0.454 µM in the assay on MOLT-4 leukemia; 0.604 µM and 0.301 µM in the assay on DMS 273 small cell lung; 0.325 µM and 0.217 µM in the assay with DLD-1 colon; 0.201 µM with SK-MEL-28 melanoma; 0.802 µM in the assay on OVCAR-5 ovarian. Besides, the GI50 in the assay with NCI-H226 lung is 0.598 µM and 0.388 µM; with M14 melanoma it was 0.424 µM.
